Assay results from patent US8076487B2, “Pyridone derivative and herbicide” (Kumiai Chemical Industry Co., Ltd., priority 2006, dated 2011).

Assays:
Assay type in all cases: in vivo
[1] = tested on: barnyardgrass (Echinochloa crus-galli (L.) P. Beauv. var. crus-galli); assay: Test Example 3: herbicidal effect by application to upland field (foliage treatment); details: foliage treatment, 1,000 g active ingredient per 1 hectare, 14th day after application, greenhouse
Outline: (§1)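 Plants were sown in field soil and raised in a greenhouse for two weeks before foliar spraying. A water-diluted wettable powder was applied at 1,000 g active ingredient per hectare in 1,000 liters per hectare. Herbicidal effect was scored on a standard scale 14 days later.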

[2] = tested on: velvetleaf (Abutilon theophrasti medicus); assay: as above; details: foliage treatment, 1,000 g active ingredient per 1 hectare, 14th day after application, greenhouse
Outline: as §1

[3] = tested on: green foxtail (Setaria viridis (L.) P. Beauv.); assay: as above; details: foliage treatment, 1,000 g active ingredient per 1 hectare, 14th day after application, greenhouse
Outline: as §1

[4] = tested on: slender amaranth (Amaranthus viridis L.); assay: as above; details: foliage treatment, 1,000 g active ingredient per 1 hectare, 14th day after application, greenhouse
Outline: as §1

[5] = tested on: barnyardgrass (Echinochloa crus-galli (L.) P. Beauv. var. crus-galli); assay: Test Example 2: herbicidal effect by soil application to upland field; details: soil surface spray, upland field soil, 1,000 g active ingredient per hectare, 21st day after application
Outline: (§2)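 Herbicidal activity was graded on a standard scale on day 21 after soil application. The covered, freshly sown pots of field soil received an aqueous wettable-powder spray delivering 1,000 g active ingredient/ha at 1,000 liters/ha and were kept in a greenhouse.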

[6] = tested on: velvetleaf (Abutilon theophrasti medicus); assay: as above; details: soil surface spray, upland field soil, 1,000 g active ingredient per hectare, 21st day after application
Outline: as §2

[7] = tested on: green foxtail (Setaria viridis (L.) P. Beauv.); assay: as above; details: soil surface spray, upland field soil, 1,000 g active ingredient per hectare, 21st day after application
Outline: as §2

[8] = tested on: slender amaranth (Amaranthus viridis L.); assay: as above; details: soil surface spray, upland field soil, 1,000 g active ingredient per hectare, 21st day after application
Outline: as §2

[9] = tested on: early watergrass (Echinochloa oryzicola Vasing); assay: Test Example 1: herbicidal effect by soil application to paddy field; details: paddy field soil application; active ingredient 1,000 g per 1 hectare; wettable powder added dropwise to water surface the day after sowing; examined on the 21st day after application
Outline: (§3)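 Plants were sown in flooded (3 cm) paddy soil and evaluated for herbicidal effect 21 days after soil application in a greenhouse.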

[10] = tested on: Japanese bulrush (Scirpus juncoides Roxb.); assay: as above; details: paddy field soil application; active ingredient 1,000 g per 1 hectare; wettable powder added dropwise to water surface the day after sowing; examined on the 21st day after application
Outline: as §3

[11] = tested on: heartshape false pickerelweed (Monochoria vaginalis (Burm.f.) C.Presl); assay: as above; details: paddy field soil application; active ingredient 1,000 g per 1 hectare; wettable powder added dropwise to water surface the day after sowing; examined on the 21st day after application
Outline: as §3

Row | Structure (SMILES) | herbicidal effect, Barnyardgrass [1] | herbicidal effect, Velvetleaf [2] | herbicidal effect, Green Foxtail [3] | herbicidal effect, Slender Amaranth [4] | herbicidal effect (index), Barnyardgrass [5] | herbicidal effect (index), Velvetleaf [6] | herbicidal effect (index), Green Foxtail [7] | herbicidal effect (index), Slender Amaranth [8] | herbicidal effect, Echinochloa oryzicola Vasing [9] | herbicidal effect, Scirpus juncoides Roxb. [10] | herbicidal effect, Monochoria vaginalis (Burm. f.) C. Presl [11]
1 | Cn1ncc(C(=O)c2ccc(C(F)(F)F)n(-c3ccc4c(c3)OCO4)c2=O)c1O [IV-97] | 5 (90% or more of herbicidal effect and crop phytotoxicity) | 5 (90% or more of herbicidal effect and crop phytotoxicity) | 5 (90% or more of herbicidal effect and crop phytotoxicity) | 5 (90% or more of herbicidal effect and crop phytotoxicity) | 5 (90% or more of herbicidal effect and crop phytotoxicity) | 5 (90% or more of herbicidal effect and crop phytotoxicity) | 4 (70 to less than 90% of herbicidal effect and crop phytotoxicity) | 5 (90% or more of herbicidal effect and crop phytotoxicity) | 5 (90% or more of herbicidal effect and crop phytotoxicity) | 5 (90% or more of herbicidal effect and crop phytotoxicity) | 5 (90% or more of herbicidal effect and crop phytotoxicity)
2 | CCCS(=O)(=O)Oc1c(C(=O)c2ccc(C(F)(F)F)n(-c3ccc4c(c3)OCO4)c2=O)cnn1C [IV-98] | 5 (90% or more of herbicidal effect and crop phytotoxicity) | 5 (90% or more of herbicidal effect and crop phytotoxicity) | 4 (70 to less than 90% of herbicidal effect and crop phytotoxicity) | 5 (90% or more of herbicidal effect and crop phytotoxicity) | 3 (50 to less than 70% of herbicidal effect and crop phytotoxicity) | 5 (90% or more of herbicidal effect and crop phytotoxicity) | 5 (90% or more of herbicidal effect and crop phytotoxicity) | 5 (90% or more of herbicidal effect and crop phytotoxicity) | 5 (90% or more of herbicidal effect and crop phytotoxicity) | 5 (90% or more of herbicidal effect and crop phytotoxicity) | 5 (90% or more of herbicidal effect and crop phytotoxicity)
3 | CCCS(=O)(=O)Oc1c(C(=O)c2ccc(C(F)(F)F)n(-c3ccc4c(c3)OCO4)c2=O)cnn1CC [IV-99] | 5 (90% or more of herbicidal effect and crop phytotoxicity) | 5 (90% or more of herbicidal effect and crop phytotoxicity) | 5 (90% or more of herbicidal effect and crop phytotoxicity) | 5 (90% or more of herbicidal effect and crop phytotoxicity) | 5 (90% or more of herbicidal effect and crop phytotoxicity) | 4 (70 to less than 90% of herbicidal effect and crop phytotoxicity) | 3 (50 to less than 70% of herbicidal effect and crop phytotoxicity) | 4 (70 to less than 90% of herbicidal effect and crop phytotoxicity) | 5 (90% or more of herbicidal effect and crop phytotoxicity) | 5 (90% or more of herbicidal effect and crop phytotoxicity) | 5 (90% or more of herbicidal effect and crop phytotoxicity)
4 | Cn1ncc(C(=O)c2ccc(C(F)(F)F)n(-c3ccc4c(c3)OCCO4)c2=O)c1O [IV-101] | 5 (90% or more of herbicidal effect and crop phytotoxicity) | 4 (70 to less than 90% of herbicidal effect and crop phytotoxicity) | 3 (50 to less than 70% of herbicidal effect and crop phytotoxicity) | 4 (70 to less than 90% of herbicidal effect and crop phytotoxicity) | 5 (90% or more of herbicidal effect and crop phytotoxicity) | 4 (70 to less than 90% of herbicidal effect and crop phytotoxicity) | 4 (70 to less than 90% of herbicidal effect and crop phytotoxicity) | 5 (90% or more of herbicidal effect and crop phytotoxicity) | 5 (90% or more of herbicidal effect and crop phytotoxicity) | 5 (90% or more of herbicidal effect and crop phytotoxicity) | 5 (90% or more of herbicidal effect and crop phytotoxicity)
5 | CCCS(=O)(=O)Oc1c(C(=O)c2ccc(C(F)(F)F)n(CC3CC(C)=NO3)c2=O)cnn1CC (stereo not shown) [IV-106] | 5 (90% or more of herbicidal effect and crop phytotoxicity) | 5 (90% or more of herbicidal effect and crop phytotoxicity) | 5 (90% or more of herbicidal effect and crop phytotoxicity) | 5 (90% or more of herbicidal effect and crop phytotoxicity) | 5 (90% or more of herbicidal effect and crop phytotoxicity) | 5 (90% or more of herbicidal effect and crop phytotoxicity) | 5 (90% or more of herbicidal effect and crop phytotoxicity) | 5 (90% or more of herbicidal effect and crop phytotoxicity) | 5 (90% or more of herbicidal effect and crop phytotoxicity) | 5 (90% or more of herbicidal effect and crop phytotoxicity) | 5 (90% or more of herbicidal effect and crop phytotoxicity)
6 | CCn1ncc(C(=O)c2ccc(C(F)(F)F)n(CC3CC(C)=NO3)c2=O)c1O (stereo not shown) [IV-107] | 5 (90% or more of herbicidal effect and crop phytotoxicity) | 5 (90% or more of herbicidal effect and crop phytotoxicity) | 5 (90% or more of herbicidal effect and crop phytotoxicity) | 5 (90% or more of herbicidal effect and crop phytotoxicity) | 5 (90% or more of herbicidal effect and crop phytotoxicity) | 5 (90% or more of herbicidal effect and crop phytotoxicity) | 5 (90% or more of herbicidal effect and crop phytotoxicity) | 5 (90% or more of herbicidal effect and crop phytotoxicity) | 5 (90% or more of herbicidal effect and crop phytotoxicity) | 5 (90% or more of herbicidal effect and crop phytotoxicity) | 5 (90% or more of herbicidal effect and crop phytotoxicity)
7 | CCCS(=O)(=O)Oc1c(C(=O)c2ccc(C(F)(F)F)n(CC(OC)OC)c2=O)cnn1C [IV-118] | 5 (90% or more of herbicidal effect and crop phytotoxicity) | 5 (90% or more of herbicidal effect and crop phytotoxicity) | 5 (90% or more of herbicidal effect and crop phytotoxicity) | 5 (90% or more of herbicidal effect and crop phytotoxicity) | 5 (90% or more of herbicidal effect and crop phytotoxicity) | 5 (90% or more of herbicidal effect and crop phytotoxicity) | 5 (90% or more of herbicidal effect and crop phytotoxicity) | 5 (90% or more of herbicidal effect and crop phytotoxicity) | 5 (90% or more of herbicidal effect and crop phytotoxicity) | 5 (90% or more of herbicidal effect and crop phytotoxicity) | 5 (90% or more of herbicidal effect and crop phytotoxicity)
8 | Cn1ncc(C(=O)c2ccc(C(F)(F)F)n(CC3OCCO3)c2=O)c1O [IV-119] | 5 (90% or more of herbicidal effect and crop phytotoxicity) | 4 (70 to less than 90% of herbicidal effect and crop phytotoxicity) | 4 (70 to less than 90% of herbicidal effect and crop phytotoxicity) | 5 (90% or more of herbicidal effect and crop phytotoxicity) | 5 (90% or more of herbicidal effect and crop phytotoxicity) | 5 (90% or more of herbicidal effect and crop phytotoxicity) | 5 (90% or more of herbicidal effect and crop phytotoxicity) | 5 (90% or more of herbicidal effect and crop phytotoxicity) | 5 (90% or more of herbicidal effect and crop phytotoxicity) | 5 (90% or more of herbicidal effect and crop phytotoxicity) | 5 (90% or more of herbicidal effect and crop phytotoxicity)
